Measured values as given in the supplement of paper PMC5579334.
± gives the standard deviation of the averaged measurements.

Columns and labels:
[1] = tested on: HSC1 (primary human Schwann cells); assay: drug sensitivity score (DSS, CellTiter-Glo viability, 72 h) (DSS (dimensionless)); higher = more sensitive; extreme values may be limits of the assay
Outline: (§1)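 For this screen, 384-well plates were preprinted with each compound at five concentrations in 10-fold steps and seeded with MPNST cell lines or primary human Schwann cells at 750–1000 cells per well. Incubation lasted 72 h at 37 °C, 5% CO2, and CellTiter-Glo ATP luminescence, scaled between vehicle and positive-control wells and averaged over duplicates where available, served as viability. Logistic fits with four parameters were applied. Relative IC50 (censored at the top concentration) and drug sensitivity score derive from these fits, and percent inhibition is at the top concentration.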

[2] = tested on: HSC2 (primary human Schwann cells); assay: as above
Outline: as §1

S1507-2 [3] = assay: as above
Outline: as §1

ST8814 [4] = assay: as above
Outline: as §1

HS-Sch-2 [5] = assay: as above
Outline: as §1

HS-PSS [6] = assay: as above
Outline: as §1

YST-1 [7] = assay: as above
Outline: as §1

S462 [8] = assay: as above
Outline: as §1

STS26T [9] = assay: as above
Outline: as §1

[10] = tested on: HSC1 (primary human Schwann cells); assay: % inhibition of CellTiter-Glo viability at highest tested concentration (72 h), relative to DMSO and benzethonium chloride controls; higher = more inhibition
Outline: as §1

[11] = tested on: HSC2 (primary human Schwann cells); assay: as above
Outline: as §1

S1507-2 [12] = assay: as above
Outline: as §1

ST8814 [13] = assay: as above
Outline: as §1

HS-Sch-2 [14] = assay: as above
Outline: as §1

HS-PSS [15] = assay: as above
Outline: as §1

YST-1 [16] = assay: as above
Outline: as §1

S462 [17] = assay: as above
Outline: as §1

STS26T [18] = assay: as above
Outline: as §1

[19] = tested on: HSC1 (primary human Schwann cells); assay: drug sensitivity score (DSS, CellTox-Green cytotoxicity, 72 h) (DSS (dimensionless)); higher = more cytotoxic; extreme values may be limits of the assay
Outline: (§2)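 MPNST cell lines and primary human Schwann cells were grown for 72 h at 37 °C in 384-well plates containing five 10-fold compound dilutions. CellTox-Green, added before seeding at a final 1:1000 dilution, gave fluorescence from DNA released by disrupted cells, and signals were scaled to vehicle and positive-control wells. Curves were fitted with a four-parameter logistic model. Drug sensitivity score and relative IC50 come from these fits, with IC50 censored at the top concentration.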

[20] = tested on: HSC2 (primary human Schwann cells); assay: as above
Outline: as §2

S1507-2 [21] = assay: as above
Outline: as §2

ST8814 [22] = assay: as above
Outline: as §2

HS-PSS [23] = assay: as above
Outline: as §2

STS26T [24] = assay: as above
Outline: as §2

Structure (SMILES) | drug sensitivity score [1] | drug sensitivity score [2] | drug sensitivity score (S1507-2 [3]) | drug sensitivity score (ST8814 [4]) | drug sensitivity score (HS-Sch-2 [5]) | drug sensitivity score (HS-PSS [6]) | drug sensitivity score (YST-1 [7]) | drug sensitivity score (S462 [8]) | drug sensitivity score (STS26T [9]) | % inhibition [10] [%] | % inhibition [11] [%] | % inhibition (S1507-2 [12]) [%] | % inhibition (ST8814 [13]) [%] | % inhibition (HS-Sch-2 [14]) [%] | % inhibition (HS-PSS [15]) [%] | % inhibition (YST-1 [16]) [%] | % inhibition (S462 [17]) [%] | % inhibition (STS26T [18]) [%] | drug sensitivity score [19] | drug sensitivity score [20] | drug sensitivity score (S1507-2 [21]) | drug sensitivity score (ST8814 [22]) | drug sensitivity score (HS-PSS [23]) | drug sensitivity score (STS26T [24])
Nc1cccc2c1C(=O)N(C1CCC(=O)NC1=O)C2=O (configuration not stated) [Pomalidomide] (max concentration tested 10000 nM) | 0 | 0 | 0 | 0 | 0 | 0 | 0 | 0.575 ± 0.81 | 0 | 8.79 | -10.6 | -0.849 ± 0.56 | 8.53 | -6.26 | -13.4 | -0.59 | 8.99 ± 10 | 2.08 | 0 | 0 | 0.571 ± 0.72 | 0 | 0 | 0
C[C@]12C=CC(=O)C=C1CC[C@@H]1[C@@H]2[C@@H](O)C[C@@]2(C)[C@H]1CC[C@]2(O)C(=O)CO [Prednisolone] (max concentration tested 10000 nM) | 0 | 0 | 0.89 ± 1.3 | 3.88 | 0 | 0 | 0.25 | 0 | 0 | 6.78 | -7.75 | 11.2 ± 15 | 15.6 | 6 | -16.2 | 12 | -0.231 ± 7 | 3.25 | 0 | 0 | 0 | 0 | 0 | 0
C[C@]12C=CC(=O)C=C1CC[C@@H]1[C@@H]2C(=O)C[C@@]2(C)[C@H]1CC[C@]2(O)C(=O)CO [Prednisone] (max concentration tested 10000 nM) | 0 | 0 | 0 | 0 | 0.07 | 0 | 0 | 0 | 0 | -0.144 | 2.63 | 0.647 ± 14 | -2.07 | 12.9 | 3.03 | -5.67 | -0.361 ± 2 | 4.83 | 0 | 0 | 0 | 0 | 0 | 0
CNNCc1ccc(C(=O)NC(C)C)cc1 [Procarbazine] (max concentration tested 10000 nM) | 0 | 0 | 0 | 0 | 0 | 0 | 0 | 0 | 0 | 4.32 | 3.15 | -0.333 ± 1.2 | 1.52 | -5.24 | 4.68 | 3.64 | -14.6 ± 3.4 | 4.63 | 0 | 0 | 0.135 ± 0.19 | 0 | 0 | 0
Cn1cc(CNCC2CCN(c3ncc(C(=O)NO)cn3)CC2)c2ccccc21 [Quisinostat] (max concentration tested 1000 nM) | 16 | 13.9 | 20.8 ± 1.1 | 21 | 15.7 | 14.7 | 24.2 | 20.6 ± 0.34 | 15.6 | 95.9 | 95.7 | 102.2 ± 0.95 | 102 | 98.6 | 93.3 | 99 | 103.4 ± 0.44 | 99.4 | 7.77 | 7.35 | 17.2 ± 0.8 | 13.8 | 6.33 | 9
CC(C)(C)c1cc(NC(=O)Nc2ccc(-c3cn4c(n3)sc3cc(OCCN5CCOCC5)ccc34)cc2)no1 [Quizartinib] (max concentration tested 1000 nM) | 3.73 | 1.32 | 1.94 ± 0.75 | 2.56 | 0.1 | 0 | 7.45 | 4.8 ± 1.2 | 1.24 | 47.8 | 36.6 | 21.3 ± 1.4 | 15.8 | 14.4 | -10.7 | 78.7 | 64.2 ± 37 | 15.3 | 0 | 0 | 0 | 0 | 0 | 0
Cn1c(Nc2ccc(C(F)(F)F)cc2)nc2cc(Oc3ccnc(-c4ncc(C(F)(F)F)[nH]4)c3)ccc21 [RAF265] (max concentration tested 1000 nM) | 11.2 | 14.4 | 4.23 ± 0.6 | 3.46 | 1.56 | 4.44 | 2.73 | 5.79 ± 0.67 | 3.93 | 70.8 | 68.9 | 43.6 ± 6 | 33.1 | 22.3 | 52.2 | 30.2 | 51.9 ± 1.2 | 40.9 | 0 | 0 | 0 | 0 | 0 | 0
CNC(=O)c1ccc(N2C(=S)N(c3ccc(C#N)c(C(F)(F)F)c3)C(=O)C23CCC3)cc1F [RD162] (max concentration tested 10000 nM) | 0.0127 | 0 | 1.24 ± 1.8 | 0 | 0 | 0 | 0 | 0 | 0 | 11.2 | 8.13 | 10.7 ± 20 | 10 | 9.66 | -0.07 | 7.83 | -0.791 ± 7.8 | 4.23 | 0 | 0 | 2.37 ± 3.4 | 0 | 0 | 0
